Columns and labels:
[1] = log cumulative stability constant; cited from earlier work
[2] = tested on: Vaccinia virus; conditions: monkey kidney cells; cited from earlier work
[3] = log cumulative stability constant; cited from earlier work; remark: listed apart in the source
[4] = log cumulative stability constant; cited from earlier work; remark: listed apart in the source
[5] = tested on: cervical dysplasia; conditions: treated for 3 months; cited from earlier work
[6] = cited from earlier work
[7] = tested on: virus infected skin cells (HIV-1, HSV-2); conditions: cited from earlier work
[8] = tested on: CaSki cells; test: MTS mitochondrial function assay, loss of cell viability, 72 hour cultures; assay type: cell-based, human; conditions: for Pa Effect Alone: Pa 2.5 mM; for SY Effect Alone: SY 150 μM
Description: (§1) In vitro cell culture experiments were performed to investigate the induction of apoptosis by combinations of Diindolylmethane (DIM), Silybin (SY), Picolinic Acid (PA), Sodium Butyrate (BA), and Gallium Nitrate (Ga) in relevant cervical cancer cells. The cell lines CaSki (containing multiple copies of integrated HPV16 DNA), C33A (HPV negative with mutant p53), were utilized. Cells were maintained and assays for apoptosis induction performed as previously described (Chen D Z, Qi M, Auborn K J and Carter T H, Indole-3-carbinol and diindolylmethane induce apoptosis of human cervical cancer cells and in murine HPV 16-transgenic preneoplastic cervical epithelium. J Nutr. 2001 December;131(12):3294-302). Novel combinations of DIM and various Iron/Zinc chelators were tested to assess and document greater than additive (synergistic) apoptosis-related activity in controlled 72 hour cultures.
(§2) The primary assay for apoptosis-related loss of cell viability was the mitochondrial function assay [reduction of 3-(4,5-dimethylthiazol-2-yl)-5-(3-carboxymethoxyphenyl)-2-(4-sulfophenyl)-2H-tetrazolium (MTS)] using a MTS kit (Promega, Madison, Wis.). A minimum of 4 replicate wells per condition were studied and absorbance at […] of the solution in individual wells was determined with a multi-well plate reader. Data were analyzed by plotting the mean and SD of cell viability versus concentration of DIM, Iron/Zinc chelator or other growth inhibitors.
(§3) Using doses for each agent at or below the ID50 levels, synergistic, apoptosis-related, reductions in cell viability were documented for both combinations of DIM and Iron disrupting compounds and for combinations of DIM and Zinc disrupting compounds. Results showing percent reductions of cell viability using the MTS assay for individual agents, combined effects, and extent of synergism are summarized in the following tables and FIGS. 1-3.

[9] = tested on: C33A cells; test: as above; assay type: cell-based, human
Description: as §1, §2, §3

[10] = tested on: papillomavirus altered cervical cancer cell lines; conditions: cell culture; cited from earlier work
[11] = tested on: tumor tissue; test: Ga-67 SPECT scan in patients with oropharyngeal squamous cell cancer; assay type: in vivo, human; conditions: 8 millicuries intravenous
From the text: In order to reduce radiation-related side effects use of both conventional radiation and Cyberknife radiosurgery (Accuray, Sunnyvale, Calif.) were employed together with intravenous and oral DIM and intravenous Ga-67 isotope and Gallium nitrate. This combined approach allowed reduction of the total radiation dose from 7000 cGy to 3500 cGy. On the first treatment day the patient underwent Computerized Tomography (CT) with intravenous omnipaque to enhance 3 dimensional definition of the tumor mass. This was followed by a Ga-67 SPECT scan involving administration of 8 millicuries of Gallium-67 Citrate isotope (Cardinal Health, Denver, Colo.).
On the first treatment day the patient, weighing 50 kg, underwent Computerized Tomography (CT) with intravenous omnipaque to enhance the 3 dimensional definition of the recurrent tumor mass. This was followed by a Ga-67 SPECT scan involving administration of 8 millicuries of Gallium-67 isotope (Cardinal Health, Denver, Colo.).

c1ccc(-c2ccccn2)nc1 [BIP, 2,2′-bypryidyl]
Logβ-Ga^II [1]: 7.7
Concentrations shown to inhibit Vaccinia virus replication and ribonucleotide reductase [2]: 60 to 80 µM
Logβ-Fe^III [3]: 16.3
Logβ-Zn^II [4]: 13.2

OCc1c[nH]c2ccccc12 [I3C, indole-3-carbinol]
Women with partial improvement [5]: about 50%

CC(=O)N(O)CCCCCNC(=O)CCC(=O)N(O)CCCCCNC(=O)CCC(=O)N(O)CCCCCN [DFO, Desferrioxamine]
Logβ-Ga^II [1]: 27.6
Lipid Solubility [6]: Low
Logβ-Fe^III [3]: 30.5
Logβ-Zn^II [4]: 11.1

O=C(O)c1ccccn1 [Picolinic acid, pyridine-2-carboxylic acid]
Lipid Solubility [6]: High
Logβ-Fe^III [3]: 12.8
Concentration required in cell culture when used alone ([7]; U.S. Pat. No. 6,410,570): 3 mM
Concentration required for slowing of growth and diminished viability ([7]; virus infected skin cells): 3,000 micromolar
Logβ-Zn^II [4]: 12.9
Pa Effect Alone ([8]; Table III line with DIM 75 uM): −13%
Pa Effect Alone ([8]; Table III line with DIM 100 uM): −13%

CCCC(=O)[O-].[Na+] [BU, butyric acid sodium salt]
BU Effect Alone ([8]; BU 150 μM, Table IV): −15%

Cc1c(O)c(=O)ccn1C [L1, 1,2-Dimethyl-3-hydroxypyrid-4-one]
Logβ-Ga^II [1]: 32.6
Lipid Solubility [6]: Moderate
Logβ-Fe^III [3]: 37.2
Logβ-Zn^II [4]: 13.5

c1ccc2c(Cc3c[nH]c4ccccc34)c[nH]c2c1 [DIM, 3,3′-diindolylmethane]
DIM Effect Alone ([8]; DIM 50 μM, Table II): −26%
DIM Effect Alone ([8]; DIM 75 μM, Table II): −46%
DIM Effect Alone ([8]; DIM 75 uM, Table III): −19%
DIM Effect Alone ([8]; DIM 75 μM, Table IV): −46%
DIM Alone 75 uM ([8]; DIM 75 uM, Table V): −19%
DIM Effect Alone ([8]; DIM 100 uM, Table III): −21%
DIM Effect Alone ([9]; DIM 25 μM, reduction of cell viability): −8%
Concentration required for activity (markers of apoptosis) [10]: 50 µM

O=C([O-])CC(O)(CC(=O)[O-])C(=O)[O-].[67Ga+3] [Gallium-67 Citrate]
Uptake of Gallium by the tumor tissue in the scan [11]: preferential uptake

O=C(O)CN(CCN(CC(=O)O)CC(=O)O)CC(=O)O [EDTA, ethylenediaminetetraacetic acid]
Logβ-Ga^II [1]: 21.0
Logβ-Fe^III [3]: 25.1
Logβ-Zn^II [4]: 16.5

COc1cc(C2Oc3cc([C@H]4Oc5cc(O)cc(O)c5C(=O)[C@@H]4O)ccc3OC2CO)ccc1O (some centres unmarked) [Silybin, 3,5,7,-trihydroxy-2-[3-(4-hydroxy-3-methoxyphenil)-2-hydroxymethyl-1,4-benxodioxan-6-il]-chronan-4-one]
Logβ-Fe^III [3]: 41.5
SY Effect Alone ([8]; Table II line with DIM 50 μM): −4%
SY Effect Alone ([8]; Table II line with DIM 75 μM): −8%
Sy Alone 150 uM ([8]; Sy 150 uM, Table V): −5%
SY Effect Alone ([9]; SY 150 μM): −54%

Source: patent US20050063903A1, “Combined use of cruciferous indoles and chelators for the treatment of papilloma virus-related conditions” (priority 2003, published 2005)
